What was measured:
[1] = biological target: T1, RZR/RORα (Homo sapiens, UniProt P35398); test: CAT reporter assay for ligand induced activation, Drosophila SL-3 cells transfected with RZR/RORα; type: cell-based; settings: when applied in the nanomolar range
T1 construct: RZRα is likely the RORalpha4 splice form
T1 sequence (P35398 1-523): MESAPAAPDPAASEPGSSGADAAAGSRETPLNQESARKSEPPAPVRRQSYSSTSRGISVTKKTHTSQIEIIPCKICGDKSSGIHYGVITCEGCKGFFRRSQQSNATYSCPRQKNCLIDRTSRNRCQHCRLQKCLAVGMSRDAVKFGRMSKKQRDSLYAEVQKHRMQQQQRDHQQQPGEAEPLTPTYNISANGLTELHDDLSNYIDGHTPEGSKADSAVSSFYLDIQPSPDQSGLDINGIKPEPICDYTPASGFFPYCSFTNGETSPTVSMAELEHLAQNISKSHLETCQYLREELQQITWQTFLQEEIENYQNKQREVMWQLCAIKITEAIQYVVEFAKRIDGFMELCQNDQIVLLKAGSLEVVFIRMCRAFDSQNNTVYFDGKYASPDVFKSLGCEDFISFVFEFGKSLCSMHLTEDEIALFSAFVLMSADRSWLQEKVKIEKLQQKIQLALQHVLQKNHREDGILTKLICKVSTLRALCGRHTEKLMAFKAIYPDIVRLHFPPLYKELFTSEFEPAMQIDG
Experimental: After dilution with 0.9 ml Schneider's medium, the liposomes are added to the cells.
The values given in table 1 represent the mean activation of CAT activities measured in three independent experiments, compared to the addition of pure solvent (ethanol).

[2] = test system: adjuvant arthritis; settings: known to be active or inactive; cited from earlier work

| SMILES | affinity to the RZR/RORα receptor [1] | activity in adjuvant arthritis [2] |
| --- | --- | --- |
| COc1ccc2[nH]cc(CCNC(C)=O)c2c1 [melatonin] | high affinity |  |
| CC1=C(/C=C/C(C)=C/C=C/C(C)=C/C(=O)O)C(C)(C)CCC1 [9-cis RA, retinoic acid] |  | - |
| CC1=C(/C=C/C(C)=C/C=C/C(C)=C/C(=O)O)C(C)(C)CCC1 [all trans RA, retinoic acid] |  | - |
| C=C1/C(=C\C=C2/CCC[C@]3(C)[C@@H]([C@H](C)CCCC(C)(C)O)CC[C@@H]23)C[C@@H](O)C[C@@H]1O [vitamin D, 1,25-dihydroxyvitaminD3] |  | - |
